One data set addresses T1, human NPY Y2 receptor (Homo sapiens, UniProt P49146).
T1 construct: host or cells: RBL
T1 sequence (P49146 1-381): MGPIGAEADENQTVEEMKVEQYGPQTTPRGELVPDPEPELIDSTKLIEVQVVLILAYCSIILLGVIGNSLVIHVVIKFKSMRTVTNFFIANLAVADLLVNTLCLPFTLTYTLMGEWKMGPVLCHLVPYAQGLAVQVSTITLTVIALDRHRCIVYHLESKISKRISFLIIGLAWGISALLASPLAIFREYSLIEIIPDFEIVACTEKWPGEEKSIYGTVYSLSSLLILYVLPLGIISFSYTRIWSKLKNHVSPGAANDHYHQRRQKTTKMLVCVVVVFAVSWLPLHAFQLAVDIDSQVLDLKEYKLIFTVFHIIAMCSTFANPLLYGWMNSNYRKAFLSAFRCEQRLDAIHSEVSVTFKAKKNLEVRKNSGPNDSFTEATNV
Nature of the data set: Antagonistic activity of shogaol and gingerol against NPY Y2 receptor, calcium flux in RBL cells. Type of data set: cell-based. To be noted: calcium flux induced by 15 nM human NPY. Here is the method:
(§1) Assays were performed at Eurofins Discovery (MO, USA). Briefly, evaluation of the inhibitory activities against human recombinant acetylcholinesterase (AChE) expressed in HEK-293 cells was performed by preincubation with test compound and/or vehicle with 41ng/ml of enzyme for 15 minutes at 25°C in phosphate buffer pH 7.4. After 20 minute incubation with 0.7 mM acetylthiocholine iodide and 0.5 mM 5,5-dithiobis-2-nitrobenzoic acid, the spectrophotometric absorbance was read at 405 nm (Catalog No. 104010). Evaluation of the antagonistic activities against human CRF2 receptor transfected in HEK-293 cells was performed by measuring the effects of the test compounds on cAMP production induced by 100 nM human CRF incubated for 30 minutes at room temperature via the HTRF detection method (Catalog No. 2086). Evaluation of the antagonistic activities against human dopamine D2, D3, and neuropeptide Y (NPY) Y2 receptors expressed in CHO-K1 cells, CHO-K1, and KAN-TS cells, respectively, was performed by preincubation of the test compounds and/or vehicle with the membrane proteins (0.1, 0.04, 0.04 mg/ml, respectively) and GDP (10, 1, 0.001 mM) in 20 mM HEPES, pH 7.4, 100 mM NaCl, 10 mM MgCl2, 1 mM DTT, and 1 mM EDTA for 20 minutes at 25°C, and SPA beads are then added for another 60 minutes at 30°C. The reaction was initiated by 0.3 nM [^35S]GTPγS for an additional incubation period (15, 30, 30 minute). Inhibition on increase of [^35S]GTPS binding response induced by dopamine (10, 0.03 mM) or 3 nM human NPY was assessed as receptor antagonist activities of test compounds (Catalog No. 310200, 310400, 332520). Evaluation of the antagonistic activities of shogaol and gingerol against human […] NPY Y2 receptor expressed in RBL cells was performed by measuring the effects of the test compounds on calcium flux induced by 15 nM human NPY (Catalog No. 4287). A concentration-response curve was generated to calculate IC50 values.

In data set [1] the target is T2, human recombinant acetylcholinesterase (AChE) (Homo sapiens, UniProt P22303).
T2 construct: purchased Eurofins Discovery 104010; host or cells: HEK-293
T2 sequence (P22303 32-614): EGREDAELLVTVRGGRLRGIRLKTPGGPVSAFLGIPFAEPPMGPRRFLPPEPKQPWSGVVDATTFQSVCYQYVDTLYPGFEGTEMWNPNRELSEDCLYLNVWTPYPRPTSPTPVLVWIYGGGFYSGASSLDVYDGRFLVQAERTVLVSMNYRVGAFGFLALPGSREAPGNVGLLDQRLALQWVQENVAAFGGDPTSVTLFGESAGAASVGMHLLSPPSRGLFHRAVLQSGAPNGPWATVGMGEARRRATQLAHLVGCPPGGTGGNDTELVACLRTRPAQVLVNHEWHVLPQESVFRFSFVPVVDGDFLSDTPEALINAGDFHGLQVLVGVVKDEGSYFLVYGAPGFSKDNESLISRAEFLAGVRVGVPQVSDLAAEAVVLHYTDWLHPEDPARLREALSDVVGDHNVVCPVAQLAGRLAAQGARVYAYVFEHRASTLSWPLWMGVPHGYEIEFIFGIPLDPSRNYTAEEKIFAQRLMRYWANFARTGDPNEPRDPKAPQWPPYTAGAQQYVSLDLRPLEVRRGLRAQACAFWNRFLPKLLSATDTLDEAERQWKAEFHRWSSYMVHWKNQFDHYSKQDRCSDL
The data set can be described thus: Inhibition of recombinant acetylcholinesterase, spectrophotometric (acetylthiocholine/DTNB). Type of data set: biochemical. To be noted: pH 7.4, 25°C. As for the experimental part: as §1

For the next data set, the target named is T3, human CRF2 receptor (Homo sapiens, UniProt Q13324).
T3 construct: host or cells: HEK-293
T3 sequence (Q13324 1-411): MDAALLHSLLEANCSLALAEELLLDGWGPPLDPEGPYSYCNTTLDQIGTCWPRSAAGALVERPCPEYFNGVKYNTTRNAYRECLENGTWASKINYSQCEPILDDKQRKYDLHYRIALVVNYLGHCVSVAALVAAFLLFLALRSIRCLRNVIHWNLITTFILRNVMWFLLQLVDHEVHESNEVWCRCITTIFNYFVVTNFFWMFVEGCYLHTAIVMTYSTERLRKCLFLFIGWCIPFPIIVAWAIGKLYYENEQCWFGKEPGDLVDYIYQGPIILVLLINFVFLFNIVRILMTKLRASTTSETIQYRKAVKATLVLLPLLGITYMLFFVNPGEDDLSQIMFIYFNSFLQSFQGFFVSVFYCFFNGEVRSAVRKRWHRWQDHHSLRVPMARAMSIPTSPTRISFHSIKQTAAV
The data set can be described thus: Antagonistic activity against CRF2 receptor, CRF-induced cAMP production (HTRF) in HEK-293 cells. Type of data set: cell-based. Here is the method:
as §1

Data set [2] deals with T4, human dopamine D2 receptor (Homo sapiens, UniProt P14416).
T4 construct: host or cells: CHO-K1 (membranes)
T4 sequence (P14416 whole entry): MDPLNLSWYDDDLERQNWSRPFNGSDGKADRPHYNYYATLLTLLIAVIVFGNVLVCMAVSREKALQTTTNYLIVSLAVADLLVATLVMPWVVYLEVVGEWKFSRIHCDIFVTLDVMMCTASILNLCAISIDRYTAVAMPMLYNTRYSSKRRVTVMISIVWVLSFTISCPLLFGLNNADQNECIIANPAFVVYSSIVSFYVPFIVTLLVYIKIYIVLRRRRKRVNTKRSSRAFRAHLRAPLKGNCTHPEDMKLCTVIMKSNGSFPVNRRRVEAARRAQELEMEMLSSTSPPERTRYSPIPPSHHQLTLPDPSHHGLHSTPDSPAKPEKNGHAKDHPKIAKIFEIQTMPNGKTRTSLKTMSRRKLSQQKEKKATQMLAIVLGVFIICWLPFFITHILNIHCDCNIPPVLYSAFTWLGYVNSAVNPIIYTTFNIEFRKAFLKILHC
The data set can be described thus: Antagonistic activity against dopamine D2 receptor, [35S]GTPγS binding, CHO-K1 membranes. It is filed as biochemical. As for the experimental part:
as §1

Data set [3] deals with T5, human dopamine D3 receptor (Homo sapiens, UniProt P35462).
T5 construct: host or cells: CHO-K1 (membranes)
T5 sequence (P35462 whole entry): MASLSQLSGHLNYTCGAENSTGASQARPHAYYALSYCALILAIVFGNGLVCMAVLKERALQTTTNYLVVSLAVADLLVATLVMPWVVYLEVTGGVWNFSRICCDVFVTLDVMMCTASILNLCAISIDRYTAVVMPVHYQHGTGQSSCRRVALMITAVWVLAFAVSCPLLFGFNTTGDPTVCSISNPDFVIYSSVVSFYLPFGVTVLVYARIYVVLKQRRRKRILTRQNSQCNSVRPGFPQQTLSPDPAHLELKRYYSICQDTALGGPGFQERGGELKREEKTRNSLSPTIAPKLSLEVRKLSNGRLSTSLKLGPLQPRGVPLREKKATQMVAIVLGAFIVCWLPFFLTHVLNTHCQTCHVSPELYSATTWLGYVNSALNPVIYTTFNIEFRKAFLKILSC
Nature of the data set: Antagonistic activity against dopamine D3 receptor, [35S]GTPγS binding, CHO-K1 membranes. Type of data set: biochemical. As for the experimental part:
as §1

For data set [4] the following is noted: cited from earlier work.
Another data set deals with AChE. As to conditions: cited from earlier work.
The target of data set [5] is T6, human neuropeptide Y (NPY) Y2 receptor (Homo sapiens, UniProt P49146).
T6 construct: host or cells: KAN-TS (membranes)
T6 sequence (P49146 1-381): T1 sequence (P49146 1-381)
The data set can be described thus: Antagonistic activity against NPY Y2 receptor, [35S]GTPγS binding, KAN-TS membranes. Type of data set: biochemical. Here is the method: as §1

The subject of a further data set is C57BL/6 mice. The data set can be described thus: CRF-induced delayed gastric emptying of solid meal in mice. It is filed as in vivo. As to conditions: CRF ICV 0.3 and 1.0 μg/mouse, vs vehicle. As for the experimental part:
Seven-week-old male C57BL/6 mice (weighing 20–27 g) were purchased from Charles River Laboratories (Tokyo, Japan). Five mice were housed in a plastic cage (230 × 310 × 155 mm) with bedding materials and acclimated for a week in a controlled environment (20–26°C, 30–70% humidity) under a 12-hour light/dark cycle with free access to standard chow and water. This study was approved by and conducted according to the guidelines of the experimental animal ethics committees of Tsumura & Co. (Tokyo, Japan; Permit No. 14-094-1).
BGH was manufactured by Tsumura & Co., complying with the quality standards authorized in the Japanese Pharmacopoeia, which was published under the authority of the Japanese Ministry of Health, Labour and Welfare. […]
Solid gastric emptying was evaluated using a test meal containing 20 g of ground meal and 40.61 mL of distilled water. […] The gastric emptying of solid meal was calculated using the equation below: […]

Setting [6] is: cAMP production induced by 100 nM human CRF, HEK-293, read-out: IC50 value CRF2.
Setting [7] is: inhibition of dopamine-induced [35S]GTPγS binding, read-out: IC50 value D2.
Setting [8] is: inhibition of dopamine-induced [35S]GTPγS binding, read-out: IC50 value D3.
Setting [9] is: reported value from previous study (*) ref 23.

Like-named read-outs stand apart in the source and are kept apart here. No end group written: not given here.

Consider `CCCCC/C=C/C(=O)CCc1ccc(O)c(OC)c1` [6-Shogaol], for which the IC50 is above 100 µM at human NPY Y2 receptor; above 100 µM in data set [1]; above 100 µM on human CRF2 receptor (setting [6]); above 100 µM in data set [2] (setting [7]); 11.3 µM in data set [3] (setting [8]).
`CCCCCCC/C=C/C(=O)CCc1ccc(O)c(OC)c1` [8-Shogaol]: the IC50 at human NPY Y2 receptor was above 100 µM; in [1] it was 18.9 µM; on human CRF2 receptor (setting [6]), above 100 µM; in [2] (setting [7]), 7.22 µM; in data set [3] (setting [8]), 11.2 µM. For the same molecule, the “Detection in the brain” value in [4] (after oral administration of ginger extract ref 34) is “not detected in the brain”.
As for `CCCCCCCCC[C@H](O)CC(=O)CCc1ccc(O)c(OC)c1` [10-Gingerol], the IC50 on human NPY Y2 receptor was above 100 µM; in data set [1], 25.9 µM; on human CRF2 receptor (setting [6]), above 100 µM; in data set [2] (setting [7]), above 100 µM; in data set [3] (setting [8]) it was above 100 µM.
For the molecule `C=CCc1ccc(O)c(-c2ccc(O)c(CC=C)c2)c1` [Honokiol], the half-maximal inhibitory concentration (IC50) with AChE (setting [9]) was 57 µM; at human CRF2 receptor it was 40 µM; in [5] it was above 100 µM; in data set [2] (setting [7]) it was 36.2 µM; in [3] (setting [8]), 52.7 µM. Besides, the Blood-brain barrier passage result in data set [4] was “capable of traversing the blood-brain barrier”.
For `O=c1cc(-c2ccc(O)c(O)c2)oc2cc(O)cc(O)c12` [Luteolin], the IC50 in the data set on AChE (reported value from previous study (**) ref 24) is 32.5 µM; at human CRF2 receptor (setting [6]) it was above 100 µM; in [5] (inhibition of [35S]GTPγS binding induced by 3 nM human NPY, KAN-TS cells, read-out: IC50 value NPY Y2) it was 8.39 µM; in [2], 48.9 µM; in data set [3] it was above 100 µM. Moreover, the Blood-brain barrier passage entry in data set [4] (in vivo) is “capable of crossing blood-brain barrier”.
In the case of `C=CCc1ccc(O)c(-c2cc(CC=C)ccc2O)c1` [Magnolol], the IC50 in the data set on AChE (setting [9]) is 69 µM; at human CRF2 receptor, 32 µM; in data set [5], above 100 µM; in data set [2], 43.1 µM; in data set [3], 50.1 µM. In data set [4], the Blood-brain barrier passage entry is “capable of traversing the blood-brain barrier”.
For the molecule `O=C(/C=C/c1ccc(O)c(O)c1)O[C@H](Cc1ccc(O)c(O)c1)C(=O)O` [Rosmarinic acid], the IC50 in [1] was above 100 µM; against human CRF2 receptor, above 100 µM; in data set [5], above 100 µM; in [2] (setting [7]), above 100 µM; in data set [3] (setting [8]), 0.54 µM. In addition, in [4], the Blood-brain barrier permeability result is “extremely low”.
On to “CRF: Stress hormone corticotropin-releasing factor (4136-s; Peptide Institute), injected ICV to induce delayed gastric emptying (SEEPPISLDLTFHLLREVLEMARAEQLAQQAHSNRKLMEII; ends and bridges not checked; UniProt P06850 154-194, looked up)”, for which the “Gastric emptying rate of solid test meal (2 hours) after CRF” value in the data set on C57BL/6 mice is “significantly decreased”.

Source of the values: article PMC7013301 (Evidence-based Complementary and Alternative Medicine : eCAM, 2020).
